# Test results reported in patent US20050031597A1, “Cells and improved method for preserving cells” (priority 2003, published 2005).
# Tested on: erythrocytic cells
# Assay: Hemolysis / survival of freeze-dried and rehydrated erythrocytic cells
Molecule,"hemolysis after freeze-drying and rehydration (FIG. 22 [T+αC]+5 min+Zn: α-crystallin 1.2 mg/ml loading, 5 min pre-hydration, 500 μM ZnSO4 in rehydration buffer) [%]","cell survival (α-crystallin, 5 min pre-hydration and 500 μM ZnSO4 combined) [%]",cell survival after rehydration (1.2 mg/ml α-crystallin in loading plus 0.5 mg/ml α-crystallin in rehydration buffer),"hemolysis after freeze-drying and rehydration (FIG. 22 [T+αC]+5 min: α-crystallin 1.2 mg/ml in loading buffer, pre-hydrated 37° C. 5 min) [%]","percent hemolysis after freeze-drying and direct rehydration (loaded in 800 mM trehalose, 100 mOsm ADSOL, 6.6 mM Na-phosphate and 1.2 mg/ml α-crystallin (FIG. 21)) [%]"
O=S(=O)([O-])[O-].[Zn+2] [ZnSO4],38,62,,,
α-crystallin: member of the small heat shock protein family,,,does not result in higher cell survival,47,49
